Laboratory results taken from patent US11542240B2, “STK19 inhibitors for treatment of cancer” (TRUSTEES OF BOSTON UNIVERSITY, priority 2018, dated 2023).

Assays:
Assay in all cases: biochemical
Type in all cases: binding
[1] = target: panel of 468 diverse kinases (Homo sapiens, UniProt P08581); conditions: MET; 1000 nM; read-out: Percent Control
[2] = target: panel of 468 diverse kinases (Homo sapiens, UniProt Q13237); conditions: PRKG2; 1000 nM; read-out: Percent Control
[3] = target: panel of 468 diverse kinases (Homo sapiens, UniProt O14976); conditions: GAK; 1000 nM; read-out: Percent Control
[4] = target: panel of 468 diverse kinases (Homo sapiens, UniProt Q06187); conditions: BTK; 1000 nM; read-out: Percent Control
[5] = target: panel of 468 diverse kinases (Homo sapiens, UniProt P57059); conditions: SIK; 1000 nM; read-out: Percent Control
[6] = target: panel of 468 diverse kinases (Homo sapiens, UniProt Q9P1W9); conditions: PIM2; 1000 nM; read-out: Percent Control
[7] = target: panel of 468 diverse kinases (Homo sapiens, UniProt Q07002); conditions: PCTK3; 1000 nM; read-out: Percent Control
[8] = target: panel of 468 diverse kinases (Homo sapiens, UniProt P25098); conditions: GRK2; 1000 nM; read-out: Percent Control
[9] = target: panel of 468 diverse kinases (Homo sapiens, UniProt Q04759); conditions: PRKCQ; 1000 nM; read-out: Percent Control
[10] = target: panel of 468 diverse kinases (Homo sapiens, UniProt O15530); conditions: PDPK1; 1000 nM; read-out: Percent Control
[11] = target: panel of 468 diverse kinases (Homo sapiens, UniProt O60674); conditions: JAK2(JH1domain-catalytic); 1000 nM; read-out: Percent Control
[12] = target: panel of 468 diverse kinases (Homo sapiens, UniProt P31749); conditions: AKT1; 1000 nM; read-out: Percent Control
[13] = target: panel of 468 diverse kinases (Homo sapiens, UniProt Q86Z02); conditions: HIPK1; 1000 nM; read-out: Percent Control
[14] = target: panel of 468 diverse kinases (Homo sapiens, UniProt Q13523); conditions: PRP4; 1000 nM; read-out: Percent Control
[15] = target: panel of 468 diverse kinases (Homo sapiens, UniProt Q8N4C8); conditions: MINK; 1000 nM; read-out: Percent Control
[16] = target: panel of 468 diverse kinases (Homo sapiens, UniProt Q00536); conditions: PCTK1; 1000 nM; read-out: Percent Control
[17] = target: panel of 468 diverse kinases (Homo sapiens, UniProt Q9UEW8); conditions: STK39; 1000 nM; read-out: Percent Control
[18] = target: panel of 468 diverse kinases (Homo sapiens, UniProt P06213); conditions: INSR; 1000 nM; read-out: Percent Control
[19] = target: panel of 468 diverse kinases (Homo sapiens, UniProt Q9BUB5); conditions: MKNK1; 1000 nM; read-out: Percent Control
[20] = target: panel of 468 diverse kinases (Homo sapiens, UniProt Q9NY57); conditions: YANK2; 1000 nM; read-out: Percent Control
[21] = target: panel of 468 diverse kinases (Homo sapiens, UniProt O75716); conditions: STK16; 1000 nM; read-out: Percent Control
[22] = target: panel of 468 diverse kinases (Plasmodium falciparum, UniProt P61075); conditions: read-out: Percent Control
[23] = target: panel of 468 diverse kinases (Homo sapiens, UniProt Q99558); conditions: NIK; 1000 nM; read-out: Percent Control
[24] = target: panel of 468 diverse kinases (Homo sapiens, UniProt Q13555); conditions: CAMK2G; 1000 nM; read-out: Percent Control
[25] = target: panel of 468 diverse kinases (Homo sapiens, UniProt O75747); conditions: PIK3C2G; 1000 nM; read-out: Percent Control
[26] = target: panel of 468 diverse kinases (Homo sapiens, UniProt Q9HAZ1); conditions: CLK4; 1000 nM; read-out: Percent Control
[27] = target: panel of 468 diverse kinases (Homo sapiens, UniProt Q6PHR2); conditions: ULK3; 1000 nM; read-out: Percent Control
[28] = target: panel of 468 diverse kinases (Homo sapiens, UniProt Q9NRH2); conditions: SNRK; 1000 nM; read-out: Percent Control
[29] = target: panel of 468 diverse kinases (Homo sapiens, UniProt Q9HCP0); conditions: CSNK1G1; 1000 nM; read-out: Percent Control
[30] = target: panel of 468 diverse kinases (Homo sapiens, UniProt Q56UN5); conditions: YSK4; 1000 nM; read-out: Percent Control
[31] = target: panel of 468 diverse kinases (Homo sapiens, UniProt Q12851); conditions: MAP4K2; 1000 nM; read-out: Percent Control
[32] = target: panel of 468 diverse kinases (Homo sapiens, UniProt P14616); conditions: INSRR; 1000 nM; read-out: Percent Control

Chain of panel of 468 diverse kinases (Homo sapiens, UniProt P08581) (P08581 25-1390 limits assumed): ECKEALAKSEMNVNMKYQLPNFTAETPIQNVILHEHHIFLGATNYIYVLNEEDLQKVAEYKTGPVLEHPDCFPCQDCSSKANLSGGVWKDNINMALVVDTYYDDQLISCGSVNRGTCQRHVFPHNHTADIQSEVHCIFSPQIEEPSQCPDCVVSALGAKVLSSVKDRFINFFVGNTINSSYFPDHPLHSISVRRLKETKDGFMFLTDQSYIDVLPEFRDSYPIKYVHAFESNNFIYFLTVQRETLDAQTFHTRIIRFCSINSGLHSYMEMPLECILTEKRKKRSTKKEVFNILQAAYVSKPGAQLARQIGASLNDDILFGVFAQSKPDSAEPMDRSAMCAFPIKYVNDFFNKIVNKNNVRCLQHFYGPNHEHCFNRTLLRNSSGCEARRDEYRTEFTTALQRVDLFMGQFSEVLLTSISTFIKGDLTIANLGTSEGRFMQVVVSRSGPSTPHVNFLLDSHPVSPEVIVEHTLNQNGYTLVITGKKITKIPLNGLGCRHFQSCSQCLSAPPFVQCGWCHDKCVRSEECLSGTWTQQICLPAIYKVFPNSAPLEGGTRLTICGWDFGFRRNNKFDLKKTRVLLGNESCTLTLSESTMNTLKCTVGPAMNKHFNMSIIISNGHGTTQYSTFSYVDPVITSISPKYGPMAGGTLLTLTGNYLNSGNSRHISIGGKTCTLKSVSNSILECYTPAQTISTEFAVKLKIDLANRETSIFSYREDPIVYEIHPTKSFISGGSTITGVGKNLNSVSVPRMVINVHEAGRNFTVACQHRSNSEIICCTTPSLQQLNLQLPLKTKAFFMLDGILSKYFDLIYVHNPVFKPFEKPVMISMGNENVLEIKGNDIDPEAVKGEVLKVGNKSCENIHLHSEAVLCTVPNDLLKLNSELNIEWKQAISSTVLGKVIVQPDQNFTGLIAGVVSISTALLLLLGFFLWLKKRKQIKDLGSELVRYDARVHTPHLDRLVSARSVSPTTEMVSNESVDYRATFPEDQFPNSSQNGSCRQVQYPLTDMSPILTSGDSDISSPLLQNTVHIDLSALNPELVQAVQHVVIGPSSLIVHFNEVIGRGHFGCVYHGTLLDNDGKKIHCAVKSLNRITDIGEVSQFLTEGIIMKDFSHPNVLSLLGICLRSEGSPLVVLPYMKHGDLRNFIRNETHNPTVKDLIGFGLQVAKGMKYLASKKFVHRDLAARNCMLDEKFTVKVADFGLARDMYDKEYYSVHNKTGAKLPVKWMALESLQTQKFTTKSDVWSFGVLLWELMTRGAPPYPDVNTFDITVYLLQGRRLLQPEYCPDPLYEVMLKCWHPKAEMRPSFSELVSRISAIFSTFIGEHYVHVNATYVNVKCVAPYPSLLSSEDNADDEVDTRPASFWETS
Chain of panel of 468 diverse kinases (Homo sapiens, UniProt Q13237) (Q13237 2-762 limits assumed): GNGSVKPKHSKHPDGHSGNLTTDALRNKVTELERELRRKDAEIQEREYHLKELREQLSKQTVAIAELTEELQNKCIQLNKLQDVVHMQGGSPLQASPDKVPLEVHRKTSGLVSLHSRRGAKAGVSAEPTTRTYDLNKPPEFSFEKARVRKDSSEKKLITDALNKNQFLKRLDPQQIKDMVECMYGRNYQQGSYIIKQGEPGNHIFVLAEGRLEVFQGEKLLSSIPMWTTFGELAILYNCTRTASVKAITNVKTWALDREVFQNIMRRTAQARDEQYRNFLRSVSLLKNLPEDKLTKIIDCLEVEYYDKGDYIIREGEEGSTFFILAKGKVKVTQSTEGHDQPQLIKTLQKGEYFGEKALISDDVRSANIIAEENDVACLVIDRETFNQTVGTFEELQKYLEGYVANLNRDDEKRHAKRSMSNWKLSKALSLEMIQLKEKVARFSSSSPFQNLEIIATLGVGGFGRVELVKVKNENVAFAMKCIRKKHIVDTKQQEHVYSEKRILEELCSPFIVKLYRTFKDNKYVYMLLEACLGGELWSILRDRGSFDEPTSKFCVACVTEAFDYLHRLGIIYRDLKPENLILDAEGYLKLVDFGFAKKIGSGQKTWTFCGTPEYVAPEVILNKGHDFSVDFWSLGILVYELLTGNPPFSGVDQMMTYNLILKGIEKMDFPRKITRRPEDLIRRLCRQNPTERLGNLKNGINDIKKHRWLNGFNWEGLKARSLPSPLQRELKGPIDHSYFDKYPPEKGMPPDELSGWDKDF
Chain of panel of 468 diverse kinases (Homo sapiens, UniProt O75716) (O75716 2-305 limits assumed): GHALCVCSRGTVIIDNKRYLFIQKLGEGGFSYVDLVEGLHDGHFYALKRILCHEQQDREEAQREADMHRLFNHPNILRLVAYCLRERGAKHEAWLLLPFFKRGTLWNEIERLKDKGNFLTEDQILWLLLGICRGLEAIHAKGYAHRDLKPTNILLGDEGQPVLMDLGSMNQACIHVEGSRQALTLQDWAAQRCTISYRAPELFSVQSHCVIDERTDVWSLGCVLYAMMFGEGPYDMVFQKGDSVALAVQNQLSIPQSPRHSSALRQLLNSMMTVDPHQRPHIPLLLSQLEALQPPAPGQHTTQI
Chain of panel of 468 diverse kinases (Homo sapiens, UniProt Q06187) (Q06187 2-659 limits assumed): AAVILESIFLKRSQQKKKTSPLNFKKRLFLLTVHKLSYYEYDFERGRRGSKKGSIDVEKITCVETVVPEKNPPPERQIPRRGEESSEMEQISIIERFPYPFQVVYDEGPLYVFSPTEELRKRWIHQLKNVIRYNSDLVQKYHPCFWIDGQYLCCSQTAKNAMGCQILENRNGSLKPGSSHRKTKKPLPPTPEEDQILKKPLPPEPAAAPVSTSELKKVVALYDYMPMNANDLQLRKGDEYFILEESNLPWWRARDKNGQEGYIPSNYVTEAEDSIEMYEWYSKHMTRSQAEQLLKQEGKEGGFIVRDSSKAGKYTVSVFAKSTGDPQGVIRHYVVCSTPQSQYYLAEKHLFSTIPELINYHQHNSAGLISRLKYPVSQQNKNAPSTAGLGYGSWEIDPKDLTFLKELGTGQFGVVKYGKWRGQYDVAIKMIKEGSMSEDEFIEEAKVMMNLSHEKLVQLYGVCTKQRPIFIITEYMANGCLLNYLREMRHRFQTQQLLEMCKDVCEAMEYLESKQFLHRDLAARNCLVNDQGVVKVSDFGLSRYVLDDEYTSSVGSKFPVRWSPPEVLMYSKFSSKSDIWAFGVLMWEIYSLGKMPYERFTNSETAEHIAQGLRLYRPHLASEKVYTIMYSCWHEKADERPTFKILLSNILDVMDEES
Chain of panel of 468 diverse kinases (Homo sapiens, UniProt P06213) (P06213 28-758 limits assumed): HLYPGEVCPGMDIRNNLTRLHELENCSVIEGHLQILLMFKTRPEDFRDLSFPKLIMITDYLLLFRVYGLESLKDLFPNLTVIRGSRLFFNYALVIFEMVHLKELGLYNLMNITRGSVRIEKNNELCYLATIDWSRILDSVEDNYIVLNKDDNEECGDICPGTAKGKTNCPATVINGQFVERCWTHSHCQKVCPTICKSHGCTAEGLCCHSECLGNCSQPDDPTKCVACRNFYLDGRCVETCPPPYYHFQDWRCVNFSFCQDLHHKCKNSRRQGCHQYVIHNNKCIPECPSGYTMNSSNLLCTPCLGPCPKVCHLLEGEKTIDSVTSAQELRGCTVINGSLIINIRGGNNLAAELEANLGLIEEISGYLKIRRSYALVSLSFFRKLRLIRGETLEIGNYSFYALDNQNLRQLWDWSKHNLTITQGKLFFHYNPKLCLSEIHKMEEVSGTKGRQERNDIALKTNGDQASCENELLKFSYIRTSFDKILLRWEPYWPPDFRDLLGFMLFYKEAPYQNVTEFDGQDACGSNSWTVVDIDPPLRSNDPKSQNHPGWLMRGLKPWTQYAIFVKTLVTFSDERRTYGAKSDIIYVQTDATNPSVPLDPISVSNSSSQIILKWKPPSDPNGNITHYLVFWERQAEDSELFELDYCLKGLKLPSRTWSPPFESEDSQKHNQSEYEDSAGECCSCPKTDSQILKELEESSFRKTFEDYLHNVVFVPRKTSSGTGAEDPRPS
Chain of panel of 468 diverse kinases (Homo sapiens, UniProt P06213) (P06213 763-1382 limits assumed): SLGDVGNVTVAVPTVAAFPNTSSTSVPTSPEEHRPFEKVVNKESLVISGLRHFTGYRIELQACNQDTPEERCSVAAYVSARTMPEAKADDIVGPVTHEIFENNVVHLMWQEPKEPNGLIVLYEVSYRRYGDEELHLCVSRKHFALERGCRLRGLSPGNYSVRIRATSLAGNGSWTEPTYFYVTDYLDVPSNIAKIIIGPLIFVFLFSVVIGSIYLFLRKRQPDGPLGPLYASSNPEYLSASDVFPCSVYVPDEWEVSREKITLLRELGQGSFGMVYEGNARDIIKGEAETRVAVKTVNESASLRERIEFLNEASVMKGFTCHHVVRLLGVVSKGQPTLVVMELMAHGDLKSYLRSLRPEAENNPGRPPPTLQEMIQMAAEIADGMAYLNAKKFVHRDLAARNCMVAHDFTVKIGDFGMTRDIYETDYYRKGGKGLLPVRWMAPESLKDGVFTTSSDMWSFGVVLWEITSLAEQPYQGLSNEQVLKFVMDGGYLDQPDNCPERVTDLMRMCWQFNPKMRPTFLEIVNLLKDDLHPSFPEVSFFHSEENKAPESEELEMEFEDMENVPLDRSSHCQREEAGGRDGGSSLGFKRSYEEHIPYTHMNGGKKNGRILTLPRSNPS

COc1cc2nc(NC3CC3)nc(NC3CCN(C(C)C)CC3)c2cc1OC [Formula IV] was tested. Which remaining activity at 1 µM [1] did it give?
Its remaining activity at 1 µM is 96%.

And the remaining activity at 1 µM [2]?
The remaining activity at 1 µM was 88%.

And the remaining activity at 1 µM [3]?
Its remaining activity at 1 µM is 92%.

And the remaining activity at 1 µM [4]?
Its remaining activity at 1 µM is 89%.

What about the remaining activity at 1 µM [5] of the same molecule?
Its remaining activity at 1 µM is 81%.

And the remaining activity at 1 µM [6]?
Its remaining activity at 1 µM is 91%.

What about the remaining activity at 1 µM [7] of the same molecule?
The remaining activity at 1 µM was 86%.

And the remaining activity at 1 µM [8]?
The remaining activity at 1 µM was 83%.

What about the remaining activity at 1 µM [9] of the same molecule?
The remaining activity at 1 µM was 86%.

And the remaining activity at 1 µM [10]?
Its remaining activity at 1 µM is 97%.

What about the remaining activity at 1 µM [11] of the same molecule?
The remaining activity at 1 µM was 74%.

What about the remaining activity at 1 µM [12] of the same molecule?
Its remaining activity at 1 µM is 95%.

And the remaining activity at 1 µM [13]?
Its remaining activity at 1 µM is 100%.

And the remaining activity at 1 µM [14]?
The remaining activity at 1 µM was 84%.

And the remaining activity at 1 µM [15]?
Its remaining activity at 1 µM is 69%.

What about the remaining activity at 1 µM [16] of the same molecule?
Its remaining activity at 1 µM is 43%.

And the remaining activity at 1 µM [17]?
The remaining activity at 1 µM was 58%.

And the remaining activity at 1 µM [18]?
The remaining activity at 1 µM was 57%.

And the remaining activity at 1 µM [19]?
The remaining activity at 1 µM was 100%.

And the remaining activity at 1 µM [20]?
Its remaining activity at 1 µM is 56%.

What about the remaining activity at 1 µM [21] of the same molecule?
Its remaining activity at 1 µM is 83%.

And the remaining activity at 1 µM [22]?
Its remaining activity at 1 µM is 48%.

What about the remaining activity at 1 µM [23] of the same molecule?
Its remaining activity at 1 µM is 46%.

And the remaining activity at 1 µM [24]?
The remaining activity at 1 µM was 100%.

What about the remaining activity at 1 µM [25] of the same molecule?
The remaining activity at 1 µM was 100%.

What about the remaining activity at 1 µM [26] of the same molecule?
Its remaining activity at 1 µM is 69%.

And the remaining activity at 1 µM [27]?
Its remaining activity at 1 µM is 71%.

What about the remaining activity at 1 µM [28] of the same molecule?
The remaining activity at 1 µM was 78%.

And the remaining activity at 1 µM [29]?
Its remaining activity at 1 µM is 100%.

What about the remaining activity at 1 µM [30] of the same molecule?
Its remaining activity at 1 µM is 78%.

What about the remaining activity at 1 µM [31] of the same molecule?
The remaining activity at 1 µM was 87%.

What about the remaining activity at 1 µM [32] of the same molecule?
The remaining activity at 1 µM was 86%.
